Tests used:
[1] = system: E. coli O157:H7; test: Sub-μm motion tracking of antibody-tethered E. coli O157:H7 cells exposed to antibiotic; type: cell-based, Escherichia coli; settings: for Distance (root-mean-square displacement of cell center over 20 sec) of a single cell: 0.5 mg/ml polymyxin B
Excerpt: Referring now to FIG. 2A an image of an E. coli O157:H7 bacterial cell with superimposed motion of the cell center over 20 sec shown as darkened dots is shown. E. coli O157:H7 cells 202 tethered to the glass slide were imaged. […] Scale Bar 203 is 1 μm. 43 The center of each bacterial cell was identified in each image frame (described in more detail below with reference to FIG. 6A-FIG. 6D) and plotted as data points 204 in FIG. 2A′.
As there shown, plot 202 plots motion data 204 in nm in X and Y coordinates ranging from −400 nm to 400 nm. The center positions of the bacterial cell (center) at different moments are shown and reveal the sub-μm scale motion of the cell. For quantitative analysis of the sub-μm motion of the bacterial cell, “Distance” is defined as the root-mean-square of the position over 20 seconds. Note that the motion ranges from about −200 nm to 200 nm displacement along both coordinates.
Referring now to FIG. 3A, images of a bacterial cell and displacement of the cell center in 1×PBS before (0 min) and after polymyxin B addition (2 and 5 min) are shown. Images 301, 302, 303 of a bacterial cell and displacement of the cell center 310 in 1×PBS before (0 min) and after polymyxin B addition (2 and 5 min). Antibiotic effects on the sub-μm motion were examined using a lethal dose of polymyxin B (0.5 mg/ml). Images 301, 302, 303 show the bright-field images of an alive bacterial cell before, 2 min, and 5 min, respectively after exposure to 0.5 mg/ml polymyxin B, where the positions of the bacterial cell before and after the exposure to polymyxin B, represented by indicia 310, 310A and 310B respectively. Scale bar 311 is set at 1 μm. #, p=0.065.
The average E. coli O157:H7 distance over 20 sec. in 1×PBS was 278 nm as indicated by bar 350, which reduced to 225 nm within 2 min after addition of 0.5 mg/ml polymyxin B, indicated by bar 352 and further to 65 nm at 5 min post-antibiotic exposure as plotted in plot 324 and represented by bar 354.
A robust AST method must work for a bacterial population that contains a mixture of loosely and tightly bound cells. […] For this mixed population of bound cells, the DAVG was 265 nm (FIG. 3C) before the addition of polymyxin B and dropped to 123 nm at 10 min post-antibiotic exposure (FIG. 3D).
Clean BK7 glass coverslips were coated with 1.5 nm chromium and 48 nm gold and used as sensing chips. The chips were rinsed with deionized water and ethanol multiple times followed by drying with nitrogen gas and cleaning with a hydrogen flame. For antibody surface, the cleaned chips were submerged in 1 mM PEG/PEG-COOH ethanol solution and left in the dark for 24 h to coat a PEG/PEG-COOH self-assembled monolayer (SAM) on each chip. The PEG/PEG-COOH SAM-coated chips were activated with 500 μl of a freshly prepared mixture of 0.1 M NHS and 0.4M EDC in 1:1 ratio to produce NHS ester receptors, which react with the primary amine groups on the antibodies via an amide bond. Chips with activated PEG/PEG-COOH SAM were cleaned with deionized water and blown dry with nitrogen gas. […]
(§1) To quantify bacterial motion, region props MATLAB command was used to obtain the “Centroid” 603 for each segmented cell in the binary images. The centroid is the X and Y coordinates of the bacterial cell center and is calculated as the mean of all non-zero pixels which the bacterial cell occupies. […]

[2] = system: UPEC cells; test: Rapid AST by motion tracking (DAVG) of APTES-tethered UPEC cells in 1×PBS; type: cell-based, uropathogenic E. coli
Procedure: To apply the above motion-tracking method to AST of the clinically relevant UPEC strain, UPEC cells were tethered to the glass surface via APTES surface chemistry and conjugation to the amine group of a bacterial surface protein. Antibiotic dose-dependent experiments were performed in a multiplexed format using multi-well slides and a 40× objective. First, baseline images were captured at 0 min for each well. Subsequently, polymyxin B at clinically relevant concentrations (4, 2, 0.5, and 0.25 μg/ml) was added to different wells, and images were recorded at 15 min intervals for 75 min. Finally, as a positive control, a bactericidal dose (0.5 mg/ml) of polymyxin B was added to all wells, and images were recorded after incubation for 15 min (at 90 min). The control well (Well 1) initially harbored 100 tethered cells (as described below with reference to FIG. 8A) with an initial DAVG of 228 nm (FIG. 4A). Over time (0-75 min), the number of cells on the surface increased gradually (as described below with reference to FIG. 8A) due to replication of the surface-tethered cells (as described below with respect to FIG. 9A-10B). During the first 15 min, DAVG increased from 228 nm to 388 nm, followed by a gradual decrease from 388 to 227 nm over 75 min (FIG. 4A). […] DAVG vs. time was analyzed for polymyxin B varying between 0.5-4 μg/ml (FIG. 4B-FIG. 4E), showing clear correlation between the sub-μm motion and antibiotic concentration. […]
All E. coli O157:H7 experiment image sequences were collected at 106 fps at a pixel resolution of 640×480 using the Pike-032B CCD camera. […] The stage was translated to each well sequentially at the marker spot area and recorded 5 sec image sequences for each well. […]
as §1

[3] = system: UPEC cells in human urine; test: Rapid AST by motion tracking (DAVG) of UPEC cells in human urine samples; type: cell-based, uropathogenic E. coli
Procedure: Referring now to FIG. 5A-5F, plots of DAVG of UPEC cells in human urine exposed to increasing concentrations of polymyxin B are there illustrated. UPEC cells (5×10^6 cfu/ml) were added to human urine samples, and DAVG was determined over time in the absence and presence of clinically-relevant concentrations of polymyxin B. The bars with vertical striping represent the baseline DAVG measurement of UPEC cells in urine. DAVG measurement of UPEC cells upon exposure to clinically-relevant concentrations of polymyxin B (bars with horizontal striping; antibiotics added immediately after the baseline measurement) and a high, bactericidal concentration of polymyxin B (bars with diagonal striping, 0.5 mg/ml added after the 90-min measurement). DAVG of cells in wells with (a) 0, (b) 0.25, (c) 1, (d) 2, (e) 4, and (f) 8 μg/ml of polymyxin B. *, p<0.05; ns, not significant.
To test the feasibility of an example of a method for analyzing clinically relevant samples, urine samples collected from healthy patients were spiked with UPEC bacterial cells. Following surface tethering, images were recorded from six different wells with polymyxin B doses varying from 0 to 8 μg/ml.
By repeating these experiments with increasing concentrations of UPEC cells in urine samples, the polymyxin B MBC90 min was determined to be between 4 and 8 μg/ml (Table 1). These MBC data corroborated the previous experiments with 5×10^6 cfu/ml and standard culturing methods which proceeded for 16 h (see also FIG. 17A-FIG. 17F).
An aliquot of frozen E. coliO157:H7 or E. coli CFT073 strain was thawed and used to inoculate 3 ml of Luria broth (LB) one day before the experiments. The overnight, saturated culture grown at 37° C. was diluted into fresh LB at a concentration of ˜10^7 cfu/ml and grown at 37° C. with gentle rotary mixing until the cultures reached an OD600 of 0.56, indicating the mid-logarithmic phase of growth. The corresponding concentration of the bacteria was 4.67×10^8 cfu/ml. Bacterial cells were collected by centrifugation at 2000×g for 15 min and resuspended in 1 ml PBS (1×) to an OD of 0.56. […]

[4] = system: UPEC CFT073; test: Broth microdilution assay (MIC, MBC) in Mueller Hinton broth; type: cell-based, uropathogenic E. coli
Procedure: (§2) Broth microdilution assay was used to determine the polymyxin B MIC and MBC following a standard protocol.^54 Exponential phase UPEC CFT073 cultures were grown as described above, and bacterial suspensions (1×10^8 cfu/ml) were prepared in Mueller Hinton broth. Bacterial suspensions (100 μl of 5×10^6, 10^7, or 10^8 cfu/ml) were added to wells of 96-well microtiter plates containing polymyxin B (0.125-8 μg/ml). The MIC was determined by measuring the absorbance at 600 nm after 16 h standing incubation at 37° C. Cell viability and MBC values were determined by plating duplicate 10-fold serial dilutions for each sample onto Luria Broth agar plates and enumerating colonies after 16 h incubation at 37° C.
Referring now to FIG. 15, a plot measuring inhibition of UPEC in Mueller Hinton broth (MHB) after incubation with increasing polymyxin B concentrations is shown. Growth inhibition of UPEC in Mueller Hinton broth (MHB) after incubation with increasing polymyxin B concentrations. UPEC cells (5×10^6/ml) were incubated in MHB for 16 h at 37° C., followed by optical density measurements (OD600). Average and standard deviation OD600 measurements collected from triplicate experiments were plotted.
Referring now to FIG. 16, a table illustrating growth inhibition and bactericidal activity of the antibiotic polymyxin B is shown. After determining growth inhibition after […]

[5] = system: UPEC cells spiked in human urine; test: Culture AST: bactericidal activity against UPEC in spiked urine samples by plating on Luria agar; type: cell-based, uropathogenic E. coli
Procedure: as §2
Referring now to FIG. 17A-FIG. 17F plots of bactericidal activity of polymyxin B against UPEC in spiked urine samples are shown. UPEC cells were added to human urine samples and exposed to different polymyxin B concentrations. At indicated times, 5 μl of each suspension was inoculated onto Luria agar. After incubation at 37° C. for 16 h, colonies were enumerated and recorded as cfu/ml. The bars with vertical striping represent the initial cfu/ml of UPEC cells in urine, and bars with horizontal striping represent cfu/ml of UPEC cells upon exposure to clinically-relevant concentrations of polymyxin B (antibiotics added immediately after the baseline measurement) in urine.

[6] = after addition of 0.5 mg/ml polymyxin B

**Q.** How did the “Distance (root-mean-square displacement of cell center over 20 sec) of a single cell” value ([1]; 2 min after addition, 278 nm in 1×PBS before) turn out when polymyxin B was run?
**A.** The value was 225 nm.

**Q.** And the “Distance (root-mean-square displacement of cell center over 20 sec) of a single cell” value ([1]; 5 min post-antibiotic exposure, 278 nm before)?
**A.** The value was 65 nm.

**Q.** And the “Viable cells on overnight culturing after exposure” value ([1]; 5 min exposure to lethal dose 0.5 mg/ml)?
**A.** Its value is “no viable cells”.

**Q.** What about the “DAVG change of completely tethered bacterial cells” value [1, 6] of the same substance?
**A.** The value was “no change”.

**Q.** And the “DAVG change of loosely tethered bacterial cells” value [1, 6]?
**A.** The value was “significant decrease”.

**Q.** What about the “DAVG after lethal polymyxin B concentration” value ([2]; control well, 0.5 mg/ml added after 75-min measurement, 227 nm before, p<0.05) of the same substance?
**A.** Its value is 64 nm.

**Q.** What about the “Number of cells on the surface over 75 min” value ([2]; polymyxin B 0.5-4 μg/ml, indicating growth inhibition) of the same substance?
**A.** Its value is “remained constant”.

**Q.** What about the “Minimum bactericidal concentration at 75 min (MBC75 min)” value ([2]; rapid AST, 75 min, 1×PBS) of the same substance?
**A.** The value was 4 µg/mL.

**Q.** What about the “DAVG change in urine” value ([3]; 4 and 8 μg/ml polymyxin B, p<0.05, to values similar to lethal 0.5 mg/ml dose) of the same substance?
**A.** The value was “decreased significantly”.

**Q.** What about the “DAVG change over time in urine” value ([3]; 90 min incubation with 0.25, 1, or 2 μg/ml polymyxin B) of the same substance?
**A.** Its value is “either remained unchanged or increased”.

**Q.** What about the “Rapid AST MBC 90 min” value ([3]; UPEC concentration in urine 10^8 cfu/ml) of the same substance?
**A.** Its value is 4 µg/mL.

**Q.** What about the “Standard incubation (16 h) MBC” value ([4]; quantitative plating after 16 h incubation) of the same substance?
**A.** The value was 2 µg/mL.

**Q.** And the “Minimum inhibitory concentration (MIC)” value ([4]; standard microdilution broth assay, 16 h incubation)?
**A.** The value was 1 µg/mL.

**Q.** What about the “Colonies on Luria agar after bactericidal concentration” value ([5]; 0.5 mg/ml added after the 90-min measurement, additional 15-min incubation) of the same substance?
**A.** Its value is “no colonies were detected”.

**Q.** And the “MBC against UPEC cells spiked in human urine” value ([5]; plating on Luria agar, 16 h at 37° C.)?
**A.** Its value is 2 µg/mL.
